Experimental data: US20090018163A1, “Substituted Heterocyclic Ethers and Their Use in CNS Disorders” (Bristol-Myers Squibb Company, priority 2007, published 2009)
Read-outs that look alike come from different tables or passages of the source.

Columns and labels:
NK-1 = target: T1, NK-1 (Homo sapiens, UniProt P25103); experiment: NK1 radioligand binding assay; settings: U373 membrane preparation, [125I]Substance P
T1 construct: 30 ul/well of a 2×U373 membrane preparation; endogenous in cells; host or cells: U373 cells (crude membrane preparation)
T1 sequence (P25103 whole entry): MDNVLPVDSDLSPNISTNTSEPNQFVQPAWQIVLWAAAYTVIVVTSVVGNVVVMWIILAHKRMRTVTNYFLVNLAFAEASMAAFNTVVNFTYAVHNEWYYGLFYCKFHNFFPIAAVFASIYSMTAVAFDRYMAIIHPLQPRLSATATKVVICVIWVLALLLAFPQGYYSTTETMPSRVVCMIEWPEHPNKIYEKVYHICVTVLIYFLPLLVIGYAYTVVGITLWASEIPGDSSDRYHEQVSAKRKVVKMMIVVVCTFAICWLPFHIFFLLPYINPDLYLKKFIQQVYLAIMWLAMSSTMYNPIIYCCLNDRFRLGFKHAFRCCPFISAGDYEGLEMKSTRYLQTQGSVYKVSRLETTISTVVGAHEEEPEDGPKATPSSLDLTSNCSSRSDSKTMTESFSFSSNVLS
Description: (§1) NK-1 Binding assay. Crude membrane suspensions were prepared for the NK1 and SERT radioligand binding assays from U373 cells or recombinant HEK-293 cells expressing hSERT, respectively. Cells were harvested from T-175 flasks as follows. The medium is removed from the flasks and the cells rinsed with HBSS without Ca and without Mg. The cells are then incubated for 5-10 minutes in 10 mM Tris-Cl, pH 7.5, 5 mM EDTA before the cells are lifted with a combination of pipetting and scraping, as needed. To prepare membranes, the cell suspension is collected into centrifuge bottles and homogenized for 30 seconds with a Polytron homogenizer. The suspension is centrifuged for 30 min @ 32,000×g, 4° C., then the supernatant is decanted and the pellet resuspended and homogenized in 50 mM Tris-Cl, pH 7.5, 1 mM EDTA for 10 seconds. The suspension is then centrifuged again for 30 min @ 32,000×g, 4° C. The supernatant is decanted and the pellet resuspended in 50 mM Tris-Cl, pH 7.5, 1 mM EDTA and briefly homogenized. A Bradford assay (Bio-rad) is performed and the membrane preparation diluted to 2 mg/ml with 50 mM Tris-Cl, pH 7.5, 1 mM EDTA. Aliquots are prepared, and then frozen and stored at −80° C.
NK1 radioligand binding assay. Compounds are dissolved in 100% DMSO at a concentration 100× the desired highest assay concentration, serially diluted 1:3 in 100% DMSO, and 0.6 ul/well of each solution is dispensed to a Nunc polypropylene, round bottom, 384 well plate. 100% inhibition is defined with 0.6 ul/well of 1 mM L-733,060 (Sigma L-137) dissolved in DMSO. 30 ul/well of a 2×U373 membrane preparation (267 ug/ml in 100 mM Tris-Cl, pH 7.5, 6 mM MgCl2, 0.2% (v/v) Sigma mammalian protease inhibitor cocktail (Sigma P-8340), and 4 ug/ml chymostatin, Sigma C-7268) and 30 ul/well of a 2× radioligand solution (400 pM [^125I]Substance P (Perkin Elmer NEX-190) in 1% (w/v) BSA (Sigma A-2153), 0.1 mg/ml bacitracin, Sigma B-0125) are added to the well and the reaction incubated for 1 hour at room temperature. The contents of the assay plate are then transferred to a Millipore MultiscreenHTS GF/B filter plate which has been pretreated with 0.5% PEI for at least one hour. The plate is vacuum filtered and washed with 7 washes of 100 ul/well of 20 mM Tris-Cl, pH 7.5, 0.5% (w/v) BSA chilled to 4° C. The filtration and washing is completed in less than 90 s. The plates are air-dried overnight, 12 ul/well of MicroScint scintillation fluid added, and the plates counted in a Trilux.
(§2) Data analysis. The raw data are normalized to percent inhibition using control wells defining 0% (DMSO only) and 100% (selective inhibitor) inhibition which are run on each plate. Each plate is run in triplicate, and the concentration response curve thus generated is fit using the four-parameter dose response equation, Y=Bottom+(Top-Bottom)/(1+10̂((LogIC50−X)*HillSlope)) in order to determine the IC50 value for each compound. The radioligand concentration chosen for each assay corresponds to the Kd concentration determined through saturation binding analysis for each assay.

hSERT = target: T2, hSERT (Homo sapiens, UniProt P31645); experiment: SERT radioligand binding assay
T2 construct: expressed in transfected cells; host or cells: HEK-293 cells (crude membrane preparation)
T2 sequence (P31645 whole entry): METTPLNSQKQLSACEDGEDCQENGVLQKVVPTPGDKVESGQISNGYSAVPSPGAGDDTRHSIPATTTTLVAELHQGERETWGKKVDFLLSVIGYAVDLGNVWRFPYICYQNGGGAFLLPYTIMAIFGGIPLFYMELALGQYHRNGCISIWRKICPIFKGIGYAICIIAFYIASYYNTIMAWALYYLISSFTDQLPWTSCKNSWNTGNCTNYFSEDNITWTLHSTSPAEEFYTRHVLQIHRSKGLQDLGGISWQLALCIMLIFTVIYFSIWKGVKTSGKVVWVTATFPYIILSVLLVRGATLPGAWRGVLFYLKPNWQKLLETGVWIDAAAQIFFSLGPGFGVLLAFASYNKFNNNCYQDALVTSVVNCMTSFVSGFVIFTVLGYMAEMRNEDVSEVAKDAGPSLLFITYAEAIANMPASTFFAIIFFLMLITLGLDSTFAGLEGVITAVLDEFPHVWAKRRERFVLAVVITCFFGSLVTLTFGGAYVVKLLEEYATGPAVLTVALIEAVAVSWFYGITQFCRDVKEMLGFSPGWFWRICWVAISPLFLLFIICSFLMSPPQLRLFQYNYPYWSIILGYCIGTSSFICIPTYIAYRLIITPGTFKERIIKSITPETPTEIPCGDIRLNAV
Description: as §1
SERT radioligand binding assay. Compounds are dissolved in 100% DMSO at a concentration 100× the desired highest assay concentration, serially diluted 1:3 in 100% DMSO, and 0.4 ul/well of each solution is dispensed to a Nunc polypropylene, round bottom, 384 well plate. 100% inhibition is defined with 0.4 ul/well of 1 mM fluoxetine (Sigma F-132) dissolved in DMSO. 20 ul/well of a 2×HEK-hSERT membrane preparation (15 ug/ml in 50 mM Tris-Cl, pH 7.5, 120 mM NaCl, 5 mM KCl) and 20 ul/well of a 2× radioligand solution (520 pM [^125I]RTI-55 (Perkin-Elmer NEX-272) in 50 mM Tris-Cl, pH 7.5, 120 mM NaCl, 5 mM KCl) are added to each well and the reaction incubated for 1 hour at room temperature. The contents of the assay plate are then transferred to a Millipore MultiscreenHTS GF/B filter plate which has been pretreated with 0.5% PEI for at least one hour. The plate is vacuum filtered and washed with 7 washes of 100 ul/well of 50 mM Tris-Cl, pH 7.5, 120 mM NaCl, 5 mM KCl chilled to 4° C. The filtration and washing is completed in less than 90 s. The plates are air-dried overnight, 12 ul/well of MicroScint scintillation fluid added, and the plates counted in a Trilux.
as §2

[1] = HEK-hSERT membrane preparation, [125I]RTI-55, Table 1a, single enantiomers, read-out: SERT IC50
[2] = HEK-hSERT membrane preparation, [125I]RTI-55, Table 1, read-out: SERT IC50

IC50 (NK-1; Table 1) [nM]	IC50 (hSERT; [2]) [nM]	SMILES	IC50 (NK-1; Table 1a, single enantiomers) [nM]	other results
100 to 300	0.01 to 100	Brc1cc(COCC2(c3ccccc3)CCNCC2)nc2ccccc12 [Example 13, 4-bromo-2-(((4-phenylpiperidin-4-yl)methoxy)methyl)quinoline]	–	–
> 300	0.01 to 100	N#Cc1cc(COCC2(c3ccccc3)CCNCC2)nc2ccccc12 [Example 14, 2-(((4-phenylpiperidin-4-yl)methoxy)methyl)quinoline-4-carbonitrile]	–	–
> 300	0.01 to 100	N#Cc1ccc(-c2cc(COCC3(c4ccccc4)CCNCC3)nc3ccccc23)cc1 [Example 15, 4-(2-(((4-phenylpiperidin-4-yl)methoxy)methyl)quinolin-4-yl)benzonitrile]	–	–
> 300	0.01 to 100	CN(C)c1cc(COCC2(c3ccccc3)CCNCC2)nc2ccccc12 [Example 16, N,N-dimethyl-2-(((4-phenylpiperidin-4-yl)methoxy)methyl)quinolin-4-amine]	–	–
> 300	0.01 to 100	FC(F)(F)c1ccc2c(Cl)cc(COCC3(c4ccccc4)CCNCC3)nc2c1 [Example 17, 4-chloro-2-(((4-phenylpiperidin-4-yl)methoxy)methyl)-7-(trifluoromethyl)quinoline]	–	–
> 300	0.01 to 100	CN(C)c1cc(COCC2(c3ccccc3)CCNCC2)nc2cc(C(F)(F)F)ccc12 [Example 18, N,N-dimethyl-2-(((4-phenylpiperidin-4-yl)methoxy)methyl)-7-(trifluoromethyl)quinolin-4-amine]	–	–
> 300	0.01 to 100	Cc1ccc2nc(COCC3(c4ccccc4)CCNCC3)cc(C)c2c1 [Example 19, 4,6-dimethyl-2-(((4-phenylpiperidin-4-yl)methoxy)methyl)quinoline]	–	–
> 300	0.01 to 100	Cc1ccc2c(C)cc(COCC3(c4ccccc4)CCNCC3)nc2c1 [Example 20]	–	–
> 300	0.01 to 100	Cc1cccc2nc(COCC3(c4ccccc4)CCNCC3)cc(C)c12 [Example 21]	–	–
0.01 to 100	0.01 to 100	Brc1cc(COCC2(c3ccccc3)CCNCC2)c2ncccc2c1 [Example 22]	–	–
> 300	0.01 to 100	N#Cc1ccc(-c2cc(COCC3(c4ccccc4)CCNCC3)c3ncccc3c2)cc1 [Example 24]	–	–

The next lines start with the compound.

SMILES	IC50 (NK-1; Table 1) [nM]	IC50 (hSERT; [2]) [nM]	IC50 (NK-1; Table 1a, single enantiomers) [nM]	other results
CC(OCC1(c2ccc(F)cc2)CCNCC1)c1cc(C(F)(F)F)cc2cccnc12 (single isomer, unassigned) [Example 67]	–	–	> 300	IC50 (hSERT; [1]): 0.01 to 100 nM
CC(OCC1(c2ccc(F)cc2)CCNCC1)c1cc(C(F)(F)F)cc2cccnc12 (single isomer, unassigned) [Example 68]	–	–	0.01 to 100	IC50 (hSERT; [1]): 0.01 to 100 nM
CC(OCC1(c2ccc(F)cc2)CCN(C)CC1)c1cc(C(F)(F)F)cc2cccnc12 (single isomer, unassigned) [Example 69]	–	–	> 300	IC50 (hSERT; read-out: SERT IC50, HEK-hSERT membrane preparation, [125I]RTI-55, Table 1a, single enantiomers): 0.01 to 100 nM
CC(OCC1(c2ccc(F)cc2)CCN(C)CC1)c1cc(C(F)(F)F)cc2cccnc12 (single isomer, unassigned) [Example 70]	–	–	0.01 to 100	IC50 (hSERT; [1]): 0.01 to 100 nM
CC(OCC1(c2ccccc2)CCNCC1)c1cc(C(F)(F)F)cc2cccnc12 (single isomer, unassigned) [Example 71]	–	–	0.01 to 100	IC50 (hSERT; [1]): 0.01 to 100 nM
CC(OCC1(c2ccccc2)CCN(C)CC1)c1cc(C(F)(F)F)cc2cccnc12 (single isomer, unassigned) [Example 72]	–	–	> 300	IC50 (hSERT): 0.01 to 100 nM
CC(OCC1(c2ccccc2)CCN(C)CC1)c1cc(C(F)(F)F)cc2cccnc12 (single isomer, unassigned) [Example 73]	–	–	0.01 to 100	IC50 (hSERT; [1]): 0.01 to 100 nM
CC(OCC1(c2ccccc2)CCN(C)CC1)c1cc(C(F)(F)F)cc2cccnc12 (single isomer, unassigned) [Example 74]	–	–	0.01 to 100	IC50 (hSERT; [1]): 0.01 to 100 nM
Cc1cc(C(C)OCC2(c3ccc(F)cc3)CCN(C)CC2)c2ncccc2c1 (single isomer, unassigned) [Example 75]	–	–	> 300	IC50 (hSERT): 0.01 to 100 nM
Cc1cc(C(C)OCC2(c3ccc(F)cc3)CCN(C)CC2)c2ncccc2c1 (single isomer, unassigned) [Example 76]	–	–	0.01 to 100	IC50 (hSERT; [1]): 0.01 to 100 nM
CC(OCC1(c2ccc(F)cc2)CCNCC1)c1cc(Br)cc2cccnc12 (single isomer, unassigned) [Example 77]	–	–	0.01 to 100	IC50 (hSERT; [1]): 0.01 to 100 nM
CC(OCC1(c2ccc(F)cc2)CCN(C)CC1)c1cc(Br)cc2cccnc12 (single isomer, unassigned) [Example 78]	–	–	100 to 300	IC50 (hSERT): 0.01 to 100 nM
CC(OCC1(c2ccc(F)cc2)CCN(C)CC1)c1cc(Br)cc2cccnc12 (single isomer, unassigned) [Example 79]	–	–	0.01 to 100	IC50 (hSERT; [1]): 0.01 to 100 nM
Cc1cc(COCC2(c3ccccc3)CCNCC2)c2ccccc2n1 [Example 1, 2-methyl-4-(((4-phenylpiperidine-4-yl)methoxy)methyl)quinoline]	> 300	0.01 to 100	–	–
Cc1cc(COCC2(c3ccccc3)CCN(C)CC2)c2ccccc2n1 [Example 2, 2-methyl-4-(((1-methyl-4-phenylpiperidin-4-yl)methoxy)methyl)quinoline]	> 300	–	–	IC50 (hSERT): 0.01 to 100 nM
Cc1cc(COCC2(c3ccccc3)CCNCC2)nc2ccccc12 [Example 3]	100 to 300	0.01 to 100	–	–
Cc1cc(COCC2(c3ccccc3)CCN(C)CC2)nc2ccccc12 [Example 4]	100 to 300	–	–	IC50 (hSERT): 0.01 to 100 nM
c1ccc(C2(COCc3ccc4ccccc4n3)CCNCC2)cc1 [Example 5]	> 300	0.01 to 100	–	–
CN1CCC(COCc2ccc3ccccc3n2)(c2ccccc2)CC1 [Example 6]	> 300	0.01 to 100	–	–
Nc1cc(COCC2(c3ccccc3)CCNCC2)nc2ccccc12 [Example 7]	> 300	0.01 to 100	–	–
CN1CCC(COCc2cc(N)c3ccccc3n2)(c2ccccc2)CC1 [Example 8]	> 300	–	–	IC50 (hSERT): 0.01 to 100 nM
Cc1ccc2cc(COCC3(c4ccccc4)CCNCC3)ccc2n1 [Example 9]	> 300	0.01 to 100	–	–
Cc1ccc2cc(COCC3(c4ccccc4)CCN(C)CC3)ccc2n1 [Example 10]	> 300	0.01 to 100	–	–
COc1ccc2nc(COCC3(c4ccccc4)CCNCC3)ccc2c1 [Example 11]	> 300	0.01 to 100	–	–
COc1ccc2nc(COCC3(c4ccccc4)CCN(C)CC3)ccc2c1 [Example 12]	> 300	–	–	IC50 (hSERT): 0.01 to 100 nM
CN1CCC(COCc2cc(Br)cc3cccnc23)(c2ccccc2)CC1 [Example 23]	0.01 to 100	0.01 to 100	–	–
